# Laboratory results as given in patent US8497276B2, “Substituted indolo-piperidine compounds” (ArQule, Inc., priority 2009, dated 2013).
# How the values were obtained:
# Tec kinase = target: T1, Tec kinase (Homo sapiens, UniProt P42680); test: Tec Kinase Activity Assay; assay type: biochemical; conditions: 75 μM ATP, Pyk-2 substrate; compound concentration not given
# T1 sequence (P42680 1-631): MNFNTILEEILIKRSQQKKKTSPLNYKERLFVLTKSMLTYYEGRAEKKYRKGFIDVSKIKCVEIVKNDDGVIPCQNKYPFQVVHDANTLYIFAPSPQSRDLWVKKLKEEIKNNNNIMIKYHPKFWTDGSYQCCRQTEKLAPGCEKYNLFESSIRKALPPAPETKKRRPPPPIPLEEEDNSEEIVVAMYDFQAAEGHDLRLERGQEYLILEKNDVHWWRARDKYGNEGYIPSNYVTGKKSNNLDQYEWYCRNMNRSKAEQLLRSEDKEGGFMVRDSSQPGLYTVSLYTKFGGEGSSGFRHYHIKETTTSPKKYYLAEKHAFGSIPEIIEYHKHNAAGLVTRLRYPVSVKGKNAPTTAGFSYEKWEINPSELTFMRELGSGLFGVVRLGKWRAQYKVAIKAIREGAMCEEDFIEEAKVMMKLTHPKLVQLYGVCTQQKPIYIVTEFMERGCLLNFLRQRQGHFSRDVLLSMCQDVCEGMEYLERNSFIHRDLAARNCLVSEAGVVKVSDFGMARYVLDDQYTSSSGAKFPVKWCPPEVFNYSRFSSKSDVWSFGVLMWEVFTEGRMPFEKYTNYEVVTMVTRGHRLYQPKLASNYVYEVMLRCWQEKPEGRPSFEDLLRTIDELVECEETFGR
# Description: The disclosed compounds were assayed for their ability to inhibit the activity of Tec kinase. Nunc Maxisorb plates were coated with streptavidin by overnight incubation with 100 μl per well of 1 μg/ml Streptavidin in DPBS. Prior to the start of the experiment, the plates were washed with TBST (3×200 μl) and blocked for at least 1 hour by adding 150 μl of 5% BSA/TBST. The plates were then washed with TBST (3×200 μl/well) and left dry immediately before the capture step.
# The disclosed test compounds and controls (Staurosporine and Sutent) were prepared using the following assay buffer (50 mM Tris-HCl, 0.02 mg/ml BSA, 10 mM MgCl2, 0.1 mM Na3VO4, 1 mM EGTA, 75 μM ATP, 0.01% NP-40, 2 mM DTT in 10% glycerol/water) at 3× desired final concentration. 20 μl of the test compounds (or control) and 20 μl TEC (0.25 ng/μl) were rapidly added to a reaction plate. The plate was incubated for 30 minutes. 20 μl of Pyk-2 (0.5 ng/μl) was then added to the reaction plate. The plate was incubated at room temperature for two hours.
# 50 μl was transferred from the reaction plate to the streptavidin coated plate. The capture plate was incubated at room temperature for 30 minutes then washed with TBST 6 times. 100 μl/well of Cell Signaling anti-phospho tyrosine was added to the capture plate at a dilution of 1:3000 in 2% BSA/TBST. The plate was incubated for one hour at room temperature then washed with TBST 6 times. 100 μl/well of alkaline phosphatase tagged goat anti-mouse antibody was added to the capture plate at a dilution of 1:4000 in 2% BSA/TBST. The plate was incubated for one hour at room temperature then washed with TBST 6 times.
# The fluorescent readout was initiated by the addition of 100 μl/well of Attophos reagent (6 mg/10 ml) and the reading was done on the Perkin Elmer Envision system.
# NCI-H1299 = test: MTS Assay (cell growth inhibition), NCI-H1299; assay type: cell-based; conditions: NCI-H1299 cells, 72 hours with test compound; concentration not given
# Description: (§1) Cells were maintained at 37° C., 5% CO2 in DMEM media supplemented with 1% fetal bovine serum, penicillin/streptomycin and fungizone (Invitrogen). Cells were seeded into 96-well tissue culture plates at 3000 per well and cultured at 37° C. for 18 hours. Test compounds were dissolved and diluted to 300× in DMSO then diluted 1:40 in DMEM. Cells were incubated with test compounds for 72 hours followed by incubation with tetrazolium compound (3-(4,5-dimethylthiazol-2-yl)-5-(3-carboxymethoxyphenyl)-2-(4-sulfophenyl)-2H-tetrazolium, inner salt; MTS) and the electron coupling reagent, phenazine methosulfate (PMS) for 4 hours. […] The ability of compounds to inhibit cell growth in this assay is correlated with the reduction of dehydrogenase enzyme activity found in metabolically active cells. The measurement of the absorbance of the formazan was assessed using an ENVISION™ (Perkin Elmer) microplate reader at 492 nm. The calculated IC50 value is the concentration of the test compound that causes a 50% decrease in the absorbance.
# MDA-MB 231 = test: MTS Assay (cell growth inhibition), MDA-MB 231; assay type: cell-based; conditions: MDA-MB 231 cells, 72 hours with test compound; concentration not given
# Description: as §1
# DLD-1 = test: MTS Assay (cell growth inhibition), DLD-1; assay type: cell-based; conditions: DLD-1 cells, 72 hours with test compound; concentration not given
# Description: as §1
# PC-3 = test: MTS Assay (cell growth inhibition), PC-3; assay type: cell-based; conditions: PC-3 cells, 72 hours with test compound; concentration not given
# Description: as §1
# Kato III = test: MTS Assay (cell growth inhibition), Kato III; assay type: cell-based; conditions: Kato III cells, 72 hours with test compound; concentration not given
# Description: as §1
# PACA-2 = test: MTS Assay (cell growth inhibition), PACA-2; assay type: cell-based; conditions: PACA-2 cells, 72 hours with test compound; concentration not given
# Description: as §1
Compound,Biochemical IC50 (% inhibition) Tec (Tec kinase),MTS cell kill data (% inhibition) NCI-H1299 (NCI-H1299),MTS cell kill data (% inhibition) MDA-MB 231 (MDA-MB 231),MTS cell kill data (% inhibition) DLD-1 (DLD-1),MTS cell kill data (% inhibition) PC-3 (PC-3),MTS cell kill data (% inhibition) Kato III (Kato III),MTS cell kill data (% inhibition) PACA-2 (PACA-2)
"c1ccc(CC2c3[nH]c4ccccc4c3CCN2c2ncnc3[nH]cnc23)cc1 (stereo not drawn) [Compound 15, 1-benzyl-2-(9H-purin-6-yl)-2,3,4,9-tetrahydro-1H-beta-carboline]",C (C = <50% inhibition),A (A = 80-100% inhibition),A (A = 80-100% inhibition),B (B = 50-79% inhibition),A (A = 80-100% inhibition),B (B = 50-79% inhibition),C (C = <50% inhibition)
"COc1ccc(C2c3[nH]c4ccccc4c3CCN2c2ncnc3[nH]ncc23)cc1 (stereo not drawn) [Compound 31, 1-(4-methoxyphenyl)-2-(1H-pyrazolo[3,4-d]pyrimidin-4-yl)-2,3,4,9-tetrahydro-1H-beta-carboline]",B (B = 50-79% inhibition),B (B = 50-79% inhibition),B (B = 50-79% inhibition),B (B = 50-79% inhibition),C (C = <50% inhibition),B (B = 50-79% inhibition),B (B = 50-79% inhibition)
"Fc1c(Cl)cccc1C1c2[nH]c3ccccc3c2CCN1c1ncnc2[nH]cnc12 (stereo not drawn) [Compound 3, 1-(3-chloro-2-fluorophenyl)-2-(9H-purin-6-yl)-2,3,4,9-tetrahydro-1H-beta-carboline]",C (C = <50% inhibition),B (B = 50-79% inhibition),C (C = <50% inhibition),B (B = 50-79% inhibition),C (C = <50% inhibition),B (B = 50-79% inhibition),C (C = <50% inhibition)
"COc1ccc(C2c3[nH]c4ccccc4c3CCN2c2ncnc3[nH]ccc23)cc1 (stereo not drawn) [Compound 30, 1-(4-methoxyphenyl)-2-(7H-pyrrolo[2,3-d]pyrimidin-4-yl)-2,3,4,9-tetrahydro-1H-beta-carboline]",C (C = <50% inhibition),B (B = 50-79% inhibition),A (A = 80-100% inhibition),B (B = 50-79% inhibition),A (A = 80-100% inhibition),A (A = 80-100% inhibition),B (B = 50-79% inhibition)
"COc1ccc(C2c3[nH]c4ccccc4c3CCN2c2ncnc3[nH]cnc23)cc1 (stereo not drawn) [Compound 29, 1-(4-methoxyphenyl)-2-(9H-purin-6-yl)-2,3,4,9-tetrahydro-1H-beta-carboline]",C (C = <50% inhibition),B (B = 50-79% inhibition),C (C = <50% inhibition),B (B = 50-79% inhibition),C (C = <50% inhibition),B (B = 50-79% inhibition),B (B = 50-79% inhibition)
"COc1ccc(C2c3[nH]c4ccccc4c3CCN2c2ncnc3[nH]ccc23)cc1OC (stereo not drawn) [Compound 22, 1-(3,4-dimethoxyphenyl)-2-(7H-pyrrolo[2,3-d]pyrimidin-4-yl)-2,3,4,9-tetrahydro-1H-beta-carboline]",C (C = <50% inhibition),B (B = 50-79% inhibition),C (C = <50% inhibition),B (B = 50-79% inhibition),C (C = <50% inhibition),B (B = 50-79% inhibition),B (B = 50-79% inhibition)
"CC(C)c1ccc(C2c3[nH]c4ccccc4c3CCN2c2ncnc3[nH]cnc23)cc1 (stereo not drawn) [Compound 19, 1-(4-isopropylphenyl)-2-(9H-purin-6-yl)-2,3,4,9-tetrahydro-1H-beta-carboline]",C (C = <50% inhibition),C (C = <50% inhibition),C (C = <50% inhibition),C (C = <50% inhibition),C (C = <50% inhibition),C (C = <50% inhibition),C (C = <50% inhibition)
"Cc1cccc(C2c3[nH]c4ccccc4c3CCN2c2ncnc3[nH]ccc23)c1 (stereo not drawn) [Compound 10, 1-(3-methylphenyl)-2-(7H-pyrrolo[2,3-d]pyrimidin-4-yl)-2,3,4,9-tetrahydro-1H-beta-carboline]",C (C = <50% inhibition),B (B = 50-79% inhibition),C (C = <50% inhibition),B (B = 50-79% inhibition),C (C = <50% inhibition),B (B = 50-79% inhibition),B (B = 50-79% inhibition)
"CC(C)c1ccc(C2c3[nH]c4ccccc4c3CCN2c2nc(N)nc3[nH]cnc23)cc1 (stereo not drawn) [Compound 20, 6-[1-(4-isopropylphenyl)-1,3,4,9-tetrahydro-2H-beta-carbolin-2-yl]-9H-purin-2-amine]",C (C = <50% inhibition),A (A = 80-100% inhibition),B (B = 50-79% inhibition),A (A = 80-100% inhibition),C (C = <50% inhibition),A (A = 80-100% inhibition),B (B = 50-79% inhibition)
"c1ccc(CCC2c3[nH]c4ccccc4c3CCN2c2ncnc3[nH]cnc23)cc1 (stereo not drawn) [Compound 27, 1-(2-phenylethyl)-2-(9H-purin-6-yl)-2,3,4,9-tetrahydro-1H-beta-carboline]",B (B = 50-79% inhibition),A (A = 80-100% inhibition),A (A = 80-100% inhibition),A (A = 80-100% inhibition),A (A = 80-100% inhibition),A (A = 80-100% inhibition),A (A = 80-100% inhibition)
